pKi: −log10 of the molar value. Read-outs that look alike come from different tables or passages of the source.

The values below come from PMC4349960, “[^18F]FE@SUPPY: a suitable PET tracer for the adenosine A3 receptor? An in vivo study in rodents” (European Journal of Nuclear Medicine and Molecular Imaging, 2015).

Data set [1] concerns the target human A3R. More on the design: method as in PMID 10052977. Conditions: read-out: Ki, affinity for human A3R; cited from earlier work.
The target of data set [2] is rat A3R. Conditions: cited from earlier work.
Data set [3] concerns the target T1, CHO cells expressing the human A3R (CHO-A3) (Homo sapiens, UniProt P0DMS8).
T1 construct: Karl-Norbert Klotz (University of Würzburg); host or cells: CHO cells stably transfected (CHO-A3), grown as subcutaneous masses in NMRI-nu/nu mice
T1 sequence (P0DMS8 1-318): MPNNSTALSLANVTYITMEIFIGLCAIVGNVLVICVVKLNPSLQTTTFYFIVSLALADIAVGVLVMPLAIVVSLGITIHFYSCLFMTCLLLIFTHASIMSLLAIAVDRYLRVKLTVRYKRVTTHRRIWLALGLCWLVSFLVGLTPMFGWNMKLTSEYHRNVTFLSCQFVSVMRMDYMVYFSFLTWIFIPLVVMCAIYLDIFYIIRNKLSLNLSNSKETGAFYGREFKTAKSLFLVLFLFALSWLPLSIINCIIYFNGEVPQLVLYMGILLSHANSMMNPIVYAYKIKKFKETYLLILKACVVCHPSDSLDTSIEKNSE
Description: Xenograft mouse model PET (CHO vs CHO-A3 solid tissue masses). The format is in vivo, mice. The conditions noted are these: xenografted mice, static image 1 h after injection. Here is the method: Adult male Sprague-Dawley rats (Him:OFA; Animal Research Institute, Himberg, Austria) weighing 307 ± 35 g were kept under controlled environmental conditions (22 ± 1 °C, 40 – 70 % humidity, 12-h light/dark cycle) with free access to standard laboratory animal diet and tap water. Before being used in the experiments, the animals were allowed to adapt to the new conditions for at least a week. Prior to each experiment, the animals were placed in a chamber containing 2.5 % isoflurane in oxygen. When unconscious, the animals were taken from the chamber and kept under anaesthesia with 1.8 % isoflurane administered via a mask during the whole experiment. Pathogen-free, female NMRI-nu/nu mice (Taconic, Denmark) weighing 28.1 ± 0.8 g were housed under sterile conditions. Mice were injected subcutaneously into both upper flanks with 100 μL of a cell suspension in phosphate-buffered saline containing 10^6 CHO cells (right side) or 10^6 CHO-A3 cells (left side). During the imaging periods of 60 or 90 min (rats or xenografted mice, respectively) the isoflurane level was adjusted depending on the depth of anaesthesia. A humidifier was used to moisten the gas mixture before supplying it to the animal.
Around 17 days after cell inoculation, animals in the xenograft group were positioned in the imaging chamber and a dynamic 90-min PET scan was initiated at the start of [^18F]FE@SUPPY injection (2.21 ± 0.75 MBq dissolved in 100 μl physiological saline, pH 7.4; three animals) via a tail vein under isoflurane anaesthesia (2 %). Additionally, in this group, [^18F]FDG PET was performed 1 day prior to the [^18F]FE@SUPPY experiments. […] In brief, mice were deprived of food for 6 – 8 h before [^18F]FDG injection via a tail vein. Mice had access to drinking water at all times. Body warming was achieved by placing the entire cage on a heating pad kept at 38 °C. Warming was started around 30 min before tracer injection and was continued throughout the uptake and imaging period. [^18F]FDG (6.03 ± 1.31 MBq dissolved in 100 μL physiological saline, pH 7.4; three animals) was injected via a tail vein under isoflurane anaesthesia (2 %). Mice were kept under isoflurane anaesthesia throughout the whole uptake and imaging period. A 10-min static image was acquired at 1 h after [^18F]FDG injection. […]
For all PET scans (rats and xenografted mice), list mode data were acquired with an energy window of 350 – 750 keV (rats) or 250 – 750 keV (mice) and a 6-ns timing window. Before each PET scan, a transmission scan using a ^57Co point source was recorded over 10 min. […] A calibration factor for converting units of microPET images into absolute radioactivity concentration units was first generated by imaging a phantom filled with a known concentration of [^18F]FDG. […]

Data set [4] is described as follows: Ex vivo stability/metabolism in rat plasma and brain after pretreatment. Also noted: species or system rats. Conditions: rats, after blocking treatment. Here is the method:
To determine the influence of the four treatments (vehicle, MRS1523, FE@SUPPY, TQD) on uptake of [^18F]FE@SUPPY, stability was assessed in plasma and brain 60 min after tracer injection. Final blood samples (3 mL) were collected in heparin-buffered tubes, rat brains were washed with ice-cold water and homogenized in 0.9 % aqueous NaCl solution (1 mL) using an IKA T10 basic Ultra-turrax (IKA Laboratory Equipment, Staufen, Germany). […] Sample clean-up was performed by vortexing plasma with the equivalent amount of methanol/acetonitrile (9:1) for 1 min and by subsequent ultracentrifugation (10,000 rpm, 5 min) to remove precipitated proteins. The supernatants obtained were analysed by radio-HPLC (Agilent, Boeblingen, Germany) equipped with a series 1100 autosampler, a series 1200 quaternary pump, a series 1200 diode array detector and a lead-shielded BGO radiodetector. A Chromolith® Performance RP-18e (100 × 4.6 mm, 5 μm) column with a Chromolith® Performance RP-18e (4 x4 mm, 5 μm) precolumn was eluted at a flow rate of 2 mL/min using a mobile phase consisting of 60 % acetonitrile and 40 % water/acetic acid 97.5:2.5 and 32 mM ammonium acetate, pH 3.5. UV detection was performed at a wavelength of 254 nm. The retention time of [^18F]FE@SUPPY was 4.6 – 5.9 min (UV detection and radiodetection).

Data set [5] concerns human A2AR. More on the design: method as in earlier work. The conditions noted are these: cited from earlier work.
Data set [6] has as its target T2, A3R (Rattus norvegicus, UniProt P28647).
T2 construct: Adult male Sprague-Dawley rats; from tissue; host or cells: living Sprague-Dawley rats, brain volume of interest in PET
T2 sequence (P28647 1-320): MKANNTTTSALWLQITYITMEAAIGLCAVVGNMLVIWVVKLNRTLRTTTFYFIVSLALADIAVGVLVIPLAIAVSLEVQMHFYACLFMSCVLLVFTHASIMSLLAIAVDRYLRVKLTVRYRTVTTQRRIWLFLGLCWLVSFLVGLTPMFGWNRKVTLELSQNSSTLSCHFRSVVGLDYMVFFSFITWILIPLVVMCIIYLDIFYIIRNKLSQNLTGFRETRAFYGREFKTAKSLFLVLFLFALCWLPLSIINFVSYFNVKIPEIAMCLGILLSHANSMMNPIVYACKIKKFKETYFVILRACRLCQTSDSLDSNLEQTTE
Briefly: Small-animal PET in rats: baseline and A3R blocking scans. Conditions: blocker 2 mg/kg i.v. 30 min before tracer; for reduction in brain AUC of [^18F]FE@SUPPY as compared with DMSO administration: 0-60 min. The format is in vivo. From the text: A microPET Focus220 scanner (Siemens, Medical Solutions) was used for the experiments. It has 168 detector modules providing a 7.6-cm axial and 22-cm transaxial field of view. The resolution of the reconstructed images (filtered back projection) was 1.3 mm (full-width at half-maximum) in the central field of view and remained under 2 mm within the central 5 cm diameter field of view. For PET imaging two groups of animals (rats and xenografted mice) were investigated. Rats were divided into four groups. The first group received vehicle (dimethyl sulphoxide, DMSO) intravenously via a lateral tail vein 30 min prior to radiotracer administration (three animals, 14.3 – 70.1 MBq, 0.2604 ± 0.06 μg). The second group received MRS1523 – a selective A3R antagonist – at a dose of 2 mg/kg body weight (dissolved in DMSO, 4 mg/mL) intravenously via a tail vein 30 min prior to radiotracer administration (three animals, 18.8 – 59.1 MBq, 0.3443 ± 0.05 μg). The third group received unlabelled title compound FE@SUPPY (dissolved in DMSO, 4 mg/mL) at a dose of 2 mg/kg 30 min before tracer administration (three animals, 9.7 – 16.1 MBq, 0.3926 ± 0.04 μg). In the final study group, the effect of P-glycoprotein inhibition was assessed by intravenous administration of 15 mg/kg TQD (freshly dissolved on each experimental day in 2.5 % aqueous dextrose solution and injected intravenously via a tail vein at a volume of 3 mL/kg over 1 min) 60 min prior to tracer administration (three animals, 13.9 – 26.8 MBq, 0.7451 ± 0.11 μg).
Anaesthetized animals were positioned in the imaging chamber of the microPET scanner, which was kept at 38 °C throughout the experiment. A stereotactic holder attached to the bed, consisting of ear plugs and a tooth bar, was used to fix the animal's head to ensure a reproducible position during the PET studies. [^18F]FE@SUPPY (27.91 ± 13.82 MBq) dissolved in 0.48 ± 0.22 mL phosphate-buffered saline (pH 7.4) was administered as a bolus via a tail vein. Dynamic PET imaging was performed over 60 min in all animals. At the end of the PET scan the animals were killed, a terminal blood sample was collected and whole brains were removed for testing of metabolite stability.
For all PET scans (rats and xenografted mice), list mode data were acquired with an energy window of 350 – 750 keV (rats) or 250 – 750 keV (mice) and a 6-ns timing window. Before each PET scan, a transmission scan using a ^57Co point source was recorded over 10 min. The PET data from the 60-min dynamic scans were sorted into three-dimensional sinograms according to the following frame sequence: 6 × 20 s, 5 × 60 s, 4 × 120 s, 3 × 300 s and 3 × 600 s. For the 90-min scans (in the xenografted mice) the following frame sequence was used: 8 × 5 s, 2 × 10 s, 2 × 30 s, 3 × 60 s, 2 × 150 s, 2 × 300 s, 4 × 600 s and 2 × 900 s. PET images were reconstructed by Fourier rebinning followed by filtered back projection with a ramp filter. The resulting voxel size was 0.6 × 0.6 × 0.8 mm for rats or 0.4 × 0.4 × 0.8 mm for mice. The standard data correction protocol (normalization, attenuation and decay correction) was applied to the data. A calibration factor for converting units of microPET images into absolute radioactivity concentration units was first generated by imaging a phantom filled with a known concentration of [^18F]FDG.
Rat brains were manually outlined on multiple planes of the PET summation images using the image analysis software PMOD 3.1 (Pmod Ltd, Zürich, Switzerland) or Amide. Volumes of interest in the brain or solid tissue mass (xenografts) were transferred to the PET images of the individual time frames and time–activity curves (TACs) expressed in units of kilobecquerels per millilitre were calculated. To facilitate comparison of TACs of different animals, radioactivity concentrations were normalized to dose and weight and expressed as standardized uptake value (SUV, %ID/cm^3 or %ID/g). […]

Data set [7] deals with human A1R. More on the design: method as in earlier work. Conditions: cited from earlier work.
Data set [8] concerns rat A3R. Description: Affinity for rat A3R (literature binding data). The conditions noted are these: ratio of Ki values.
The mark [9] stands for this setting: read-out: Ki, affinity for rat A3R.

The term pKi denotes the Ki on a negative log10 scale, so that one unit is a factor of ten. On to `CCSC(=O)c1c(CC)nc(-c2ccccc2)c(C(=O)OCCF)c1CC` [[^18F]FE@SUPPY, 5-(2-[^18F]fluoroethyl)-2,4-diethyl-3-(ethylsulfanylcarbonyl)-6-phenylpyridine-5-carboxylate], for which the pKi in data set [1] is 8.38; in data set [2] (read-out: Ki, affinity towards rat A3R), 6.22.

Consider [^18F]FDG [reference compound], for which, in data set [3], the “uptake in CHO tissue mass” value was found to be 5.4 %ID/g and the “uptake in CHO-A3 tissue mass” value came out at 6.3 %ID/g.

As for `CCSC(=O)c1c(CC)nc(-c2ccccc2)c(C(=O)OCCF)c1CC` [FE@SUPPY], in data set [4], the “reduction in plasma concentration of [^18F]FE@SUPPY at 60 min after injection” value came to 27%. Moreover, the “affinity for human A2AR” value in data set [5] is reported as “micromolar range”. Besides, in data set [6], the “reduction in peak brain activity of [^18F]FE@SUPPY as compared with DMSO administration” value was determined as 16.7% and the “reduction in brain AUC of [^18F]FE@SUPPY as compared with DMSO administration” value is listed as 5.4%. Besides, the pKi in data set [2] (setting [9]) is 6.22. Also, the “affinity for human A1R” value in data set [7] was “micromolar range”.

As to `CCCOC(=O)c1c(-c2ccccc2)nc(CC)c(C(=O)SCC)c1CCC` [MRS1523, reference compound], the “reduction in plasma concentration of [^18F]FE@SUPPY at 60 min after injection” value in data set [4] amounted to 36%. For the same compound, in data set [6], the “reduction in peak brain activity of [^18F]FE@SUPPY as compared with DMSO administration” value is reported as 34.1% and the “reduction in brain AUC of [^18F]FE@SUPPY as compared with DMSO administration” value is recorded as 27.6%. In data set [8], the “fold higher affinity of MRS1523 for rat A3R compared with FE@SUPPY” value is recorded as 5.31 fold. Moreover, in data set [2] (setting [9]), the pKi was 6.95.
